The NIST ThermoML archive (doi:10.1021/acs.jced.8b00684)
Numbers after ± are expanded uncertainties.

Legend:
[1] = 100 kPa, Liquid, Falling or rolling sphere viscometry
[2] = xn = mol fraction of the nth substance listed; conditions: 100 kPa, Liquid, Falling or rolling sphere viscometry, x2 = 0

| SMILES | viscosity ([1]; 293.15 K) [mPa·s] | viscosity ([1]; 298.15 K) [mPa·s] | viscosity ([1]; 303.15 K) [mPa·s] | viscosity ([1]; 313.15 K) [mPa·s] | viscosity ([1]; 323.15 K) [mPa·s] | viscosity ([1]; 333.15 K) [mPa·s] | viscosity ([1]; 343.15 K) [mPa·s] | viscosity ([1]; 353.15 K) [mPa·s] | viscosity ([2]; 293.15 K) [mPa·s] | viscosity ([2]; 298.15 K) [mPa·s] | viscosity ([2]; 303.15 K) [mPa·s] | viscosity ([2]; 313.15 K) [mPa·s] | viscosity ([2]; 323.15 K) [mPa·s] | viscosity ([2]; 333.15 K) [mPa·s] | viscosity ([2]; 343.15 K) [mPa·s] | viscosity ([2]; 353.15 K) [mPa·s] |
| --- | --- | --- | --- | --- | --- | --- | --- | --- | --- | --- | --- | --- | --- | --- | --- | --- |
| CCCCCCn1cc[n+](C)c1.F[B-](F)(F)F [1-hexyl-3-methylimidazolium tetrafluoroborate] | 293 ± 20 | 216 ± 13 | 163 ± 9 | 96.7 ± 4.3 | 61.8 ± 2.5 | 41.9 ± 1.7 | 29.5 ± 1.2 | 21.7 ± 0.9 |  |  |  |  |  |  |  |  |
| CC#N [acetonitrile] | 0.39 ± 0.02 | 0.37 ± 0.02 | 0.35 ± 0.02 | 0.33 ± 0.01 | 0.3 ± 0.01 | 0.28 ± 0.01 | 0.26 ± 0.01 |  |  |  |  |  |  |  |  |  |
| CC#N [acetonitrile] + CCCCCCn1cc[n+](C)c1.F[B-](F)(F)F |  |  |  |  |  |  |  |  | 0.39 ± 0.02 | 0.37 ± 0.02 | 0.35 ± 0.02 | 0.33 ± 0.01 | 0.3 ± 0.01 | 0.28 ± 0.01 | 0.26 ± 0.01 |  |
| C[S+](C)[O-] [dimethyl sulfoxide] | 2.21 ± 0.09 | 2.01 ± 0.08 | 1.84 ± 0.07 | 1.56 ± 0.06 | 1.34 ± 0.05 | 1.17 ± 0.05 | 1.03 ± 0.04 | 0.92 ± 0.04 |  |  |  |  |  |  |  |  |
| C[S+](C)[O-] [dimethyl sulfoxide] + CCCCCCn1cc[n+](C)c1.F[B-](F)(F)F |  |  |  |  |  |  |  |  | 2.21 ± 0.09 | 2.01 ± 0.08 | 1.84 ± 0.07 | 1.56 ± 0.06 | 1.34 ± 0.05 | 1.17 ± 0.05 | 1.03 ± 0.04 | 0.92 ± 0.04 |
